Results reported in patent US20050059669A1, “M-substituted benzoic acid derivatives having integrin alpha v beta 3 antagonistic activity” (priority 1999, published 2005).
Blank lines part the entries; values can stand above or below the compound they belong to.

How the values were obtained:
GP IIb/IIIa = GP IIb/IIIa (Homo sapiens, UniProt P05106+P08514); test: GP IIb/IIIa antagonistic activity (method of Pharmacological Test 2 in WO 94/21599); type: binding
Protocol: GP IIb/IIIa antagonistic activity was measured for the compounds according to the present invention. The measurement of the GP IIb/IIIa antagonistic activity was carried out according to the method described in Pharmacological Test 2 in WO 94/21599. As a result, both the compounds prepared in Examples 3 and 6 had significant GP IIb/IIIa antagonistic activity. In particular, the IC50 value of the compound prepared in Example 3 was 2.0 nM.

[1] = molecular target: T1, integrin αvβ3 (vitronectin receptor purified from the human placenta) (Homo sapiens, UniProt P05106+P06756); test: αvβ3 binding assay (vitronectin-vitronectin receptor binding assay); details: vitronectin binding to coated human placenta vitronectin receptor; read-out: integrin αvβ3 antagonistic activity (IC50)
T1 construct: a vitronectin receptor (protein content: 118 mg/ml) purified from the human placenta; from tissue; host or cells: human placenta
Protocol: Integrin αvβ3 antagonistic activity was first measured in a vitronectin-vitronectin receptor binding assay system in accordance with the method of Kouns et al. (W. C. Kouns, D. Kirchhofer, P. Hadvary, A. Edenhofer, T. Weller, G. Pfenninger, H. R. Baumgartner, L. K. Jennings and B. Steiner, Blood, 80, 2539-2547 (1992)). […] A 0.1 M citric acid buffer (pH 4.3) containing 0.05% NaN3 was added in an amount of 50 μl/well to stop the reaction, followed by the measurement of the absorbance at 415 nm with a microplate reader (MTP 32, Corona Electric) (reference: 675 nm). The total binding was defined as the absorbance after a reaction using 50 μl of TBS-Tween instead of the test compound, and the non-specific binding (100% inhibition) was defined as the absorbance after a reaction using 50 μl of TBS-Tween containing 2×10^−3 M RGDS. The inhibition was calculated by the following equation: [formula]
IC50 was determined from a primary regression line of the logarithm of each concentration of the test compound and the logarithm of (100−inhibition)/inhibition.

[2] = system: human vascular smooth muscle cells; test: Inhibitory activity against adhesion of human vascular smooth muscle cells to vitronectin; type: cell-based
Protocol: The adhesion of human vascular smooth muscle cells to immobilized human vitronectin was measured in accordance with the method of Liaw et al. (Liaw L, Almeida M, Hart C E, Schwartz S M, and Giachelli C M, Circulation Research, 74 (2), 214-224 (1994)).
A Dulbecco's phosphate buffer (Dulbecco's PBS(−), Nissui Pharmaceutical Co., Ltd.) solution of human plasma-derived vitronectin (CALBIOCHEM) adjusted to a concentration of 4 μg/ml was first added to wells (50 μl/well) of a microplate (Maxisorp, Nunc), and a reaction for immobilization was allowed to proceed at 4° C. overnight. After washing twice with 150 μl of Dulbecco's phosphate buffer, a Dulbecco's phosphate buffer containing 10 mg/ml of bovine serum albumin (SIGMA) was added, followed by blocking at 37° C. for one hr. […]
Next, 50 μl of a Dulbecco's modified Eagle's basal medium containing 0.1% of bovine serum albumin with a medicament added thereto was added to the wells of the human vitronectin-coated assay microplate, followed by pre-cultivation under 5% carbon dioxide at 37° C. for 10 min. […] The absorbance of the microplate thus obtained was measured at 595 nm. […] The inhibition was calculated by the following equation. IC50 was determined from a primary regression line of the logarithm of each concentration of the test compound and the logarithm of (100−inhibition)/inhibition. […]

T1 sequence (P06756 31-889 limits assumed): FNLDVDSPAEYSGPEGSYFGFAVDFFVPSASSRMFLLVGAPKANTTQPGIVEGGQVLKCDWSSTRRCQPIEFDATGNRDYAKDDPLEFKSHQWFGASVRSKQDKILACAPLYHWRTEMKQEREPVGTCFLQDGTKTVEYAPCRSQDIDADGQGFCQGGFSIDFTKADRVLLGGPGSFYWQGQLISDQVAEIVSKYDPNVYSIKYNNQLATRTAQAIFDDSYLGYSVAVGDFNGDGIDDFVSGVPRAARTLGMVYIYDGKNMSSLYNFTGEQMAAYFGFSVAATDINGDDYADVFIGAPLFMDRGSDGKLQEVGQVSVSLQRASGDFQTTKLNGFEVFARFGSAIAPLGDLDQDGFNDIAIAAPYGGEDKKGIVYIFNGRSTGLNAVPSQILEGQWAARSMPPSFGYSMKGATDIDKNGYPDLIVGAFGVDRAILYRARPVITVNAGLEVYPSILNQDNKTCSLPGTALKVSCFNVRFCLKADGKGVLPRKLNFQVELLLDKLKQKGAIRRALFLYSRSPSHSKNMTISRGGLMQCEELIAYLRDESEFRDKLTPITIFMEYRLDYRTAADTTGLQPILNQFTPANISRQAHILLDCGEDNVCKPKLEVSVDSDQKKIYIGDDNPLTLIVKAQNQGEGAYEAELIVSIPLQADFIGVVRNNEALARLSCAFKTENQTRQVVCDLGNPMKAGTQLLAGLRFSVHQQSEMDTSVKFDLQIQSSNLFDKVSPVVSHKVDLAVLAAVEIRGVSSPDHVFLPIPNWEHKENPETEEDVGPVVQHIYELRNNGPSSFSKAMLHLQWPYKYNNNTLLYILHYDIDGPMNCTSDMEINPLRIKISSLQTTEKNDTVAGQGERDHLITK
T1 sequence (P06756 891-1048 partner limits assumed): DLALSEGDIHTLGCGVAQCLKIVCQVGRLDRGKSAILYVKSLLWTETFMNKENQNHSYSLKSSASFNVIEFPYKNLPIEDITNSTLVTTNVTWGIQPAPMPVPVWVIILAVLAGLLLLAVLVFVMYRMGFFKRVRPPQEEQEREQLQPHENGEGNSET
T1 sequence (P05106 27-788): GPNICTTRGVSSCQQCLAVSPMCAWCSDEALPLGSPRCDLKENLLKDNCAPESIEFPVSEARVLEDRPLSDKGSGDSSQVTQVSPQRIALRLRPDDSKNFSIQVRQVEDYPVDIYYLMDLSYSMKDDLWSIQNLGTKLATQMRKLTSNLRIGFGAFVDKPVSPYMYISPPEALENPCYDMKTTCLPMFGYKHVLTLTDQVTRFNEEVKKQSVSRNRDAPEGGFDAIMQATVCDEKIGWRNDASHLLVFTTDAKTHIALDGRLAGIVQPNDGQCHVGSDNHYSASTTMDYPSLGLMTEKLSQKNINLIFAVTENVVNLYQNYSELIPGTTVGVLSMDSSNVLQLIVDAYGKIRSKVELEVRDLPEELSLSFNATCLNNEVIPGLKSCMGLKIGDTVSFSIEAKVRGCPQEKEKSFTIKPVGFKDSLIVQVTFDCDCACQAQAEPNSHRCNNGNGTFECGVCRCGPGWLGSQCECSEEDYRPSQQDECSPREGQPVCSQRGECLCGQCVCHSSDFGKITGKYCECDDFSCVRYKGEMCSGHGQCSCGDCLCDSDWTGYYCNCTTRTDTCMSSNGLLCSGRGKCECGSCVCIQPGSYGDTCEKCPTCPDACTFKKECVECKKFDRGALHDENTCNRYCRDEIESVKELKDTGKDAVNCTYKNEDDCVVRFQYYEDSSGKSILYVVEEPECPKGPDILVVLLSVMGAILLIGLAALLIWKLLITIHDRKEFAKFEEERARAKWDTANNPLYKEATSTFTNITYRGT
GP IIb/IIIa, sequence (P08514 32-887 limits assumed): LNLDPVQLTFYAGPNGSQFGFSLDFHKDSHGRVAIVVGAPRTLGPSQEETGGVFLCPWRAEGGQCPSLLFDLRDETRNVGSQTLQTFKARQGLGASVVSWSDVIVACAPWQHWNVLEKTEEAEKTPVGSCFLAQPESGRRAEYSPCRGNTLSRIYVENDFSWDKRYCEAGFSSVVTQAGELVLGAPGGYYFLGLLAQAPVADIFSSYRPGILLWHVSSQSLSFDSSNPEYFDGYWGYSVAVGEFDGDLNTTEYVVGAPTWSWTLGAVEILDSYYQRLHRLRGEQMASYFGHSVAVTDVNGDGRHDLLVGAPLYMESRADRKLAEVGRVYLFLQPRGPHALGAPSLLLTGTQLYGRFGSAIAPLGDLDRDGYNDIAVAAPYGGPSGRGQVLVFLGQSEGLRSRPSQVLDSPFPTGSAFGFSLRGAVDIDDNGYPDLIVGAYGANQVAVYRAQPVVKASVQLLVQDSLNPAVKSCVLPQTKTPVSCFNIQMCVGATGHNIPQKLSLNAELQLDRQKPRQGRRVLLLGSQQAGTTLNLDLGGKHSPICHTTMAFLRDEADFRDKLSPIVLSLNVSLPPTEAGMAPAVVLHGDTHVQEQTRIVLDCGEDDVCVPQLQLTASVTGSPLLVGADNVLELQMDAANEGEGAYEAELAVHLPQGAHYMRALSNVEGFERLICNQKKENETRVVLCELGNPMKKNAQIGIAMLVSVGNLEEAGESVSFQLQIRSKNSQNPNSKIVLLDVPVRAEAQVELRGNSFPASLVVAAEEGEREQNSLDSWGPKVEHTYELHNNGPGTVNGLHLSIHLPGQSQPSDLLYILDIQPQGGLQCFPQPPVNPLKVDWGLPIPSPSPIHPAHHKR
GP IIb/IIIa, sequence (P08514 891-1039 partner limits assumed): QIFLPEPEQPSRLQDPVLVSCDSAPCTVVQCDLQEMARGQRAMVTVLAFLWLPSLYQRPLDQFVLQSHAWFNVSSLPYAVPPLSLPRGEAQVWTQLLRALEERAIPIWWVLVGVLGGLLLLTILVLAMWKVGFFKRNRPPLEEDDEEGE
GP IIb/IIIa, sequence (P05106 27-788): as the sequence (P05106 27-788) above

IC50 (GP IIb/IIIa): 2 nM
IC50 [1]: 1.3 nM
SMILES: O=C(NC[C@H](NS(=O)(=O)c1ccccc1)C(=O)O)c1cccc(N2CCN(C3=NCCCN3)CC2)c1 [Example 3, (2S)-Benzenesulfonylamino-3-[3-{4-(1,4,5,6-tetrahydropyrimidin-2-yl)piperazin-1-yl}benzoylamino]-propionic acid]

SMILES: O=C(NC[C@H](NS(=O)(=O)c1ccccc1)C(=O)O)c1cccc(N2CCC(NC3=NCCCN3)CC2)c1 [Example 6, (2S)-Benzenesulfonylamino-3-[3-{4-(1,4,5,6-tetrahydropyrimidin-2-ylamino)piperidin-1-yl}benzoylamino]propionic acid]
GP IIb/IIIa antagonistic activity (GP IIb/IIIa; result in words): significant

IC50 [1]: 2 nM
SMILES: O=C(NC[C@H](NS(=O)(=O)c1ccccc1)C(=O)O)c1ccc(F)c(N2CCC(NC3=NCCCN3)CC2)c1 [Example 9, (2S)-Benzenesulfonylamino-3-[4-fluoro-3-{4-(1,4,5,6-tetrahydropyrimidin-2-ylamino)piperidin-1-yl}-benzoylamino]propionic acid]

SMILES: O=C(NC[C@H](NS(=O)(=O)c1ccccc1)C(=O)O)c1cc(N2CCC(NC3=NCCCN3)CC2)cc(C(F)(F)F)c1 [Example 27, (2S)-Benzenesulfonylamino-3-[3-{4-(1,4,5,6-tetrahydropyrimidin-2-ylamino)piperidin-1-yl}-5-(trifluoromethyl)benzoylamino]propionic acid]
IC50 ([2]; immobilized human vitronectin): 96 nM
cell adhesion inhibitory activity ([2]; result in words): potent
